From article PMC10382584, “Macrocyclization of linear molecules by deep learning to facilitate macrocyclic drug candidates discovery” (Nature Communications, 2023)

Legend:
Experiment in all cases: biochemical
Design in all cases: DiscoveRx KINOMEscan competition binding, percent of DMSO control signal at 100 nM
Conditions in all cases: read-out: Fig. 4a / Percent Control / Compound 1; percent of DMSO control, competition binding
[1] = target: NEK1 (Homo sapiens, UniProt Q96PY6)
[2] = target: T1, RIPK5 (Homo sapiens, UniProt Q6XUX3)
T1 construct: gene DSTYK

[3] = target: T2, ERK8 (Homo sapiens, UniProt Q8TD08)
T2 construct: gene MAPK15
T2 sequence (Q8TD08 whole entry): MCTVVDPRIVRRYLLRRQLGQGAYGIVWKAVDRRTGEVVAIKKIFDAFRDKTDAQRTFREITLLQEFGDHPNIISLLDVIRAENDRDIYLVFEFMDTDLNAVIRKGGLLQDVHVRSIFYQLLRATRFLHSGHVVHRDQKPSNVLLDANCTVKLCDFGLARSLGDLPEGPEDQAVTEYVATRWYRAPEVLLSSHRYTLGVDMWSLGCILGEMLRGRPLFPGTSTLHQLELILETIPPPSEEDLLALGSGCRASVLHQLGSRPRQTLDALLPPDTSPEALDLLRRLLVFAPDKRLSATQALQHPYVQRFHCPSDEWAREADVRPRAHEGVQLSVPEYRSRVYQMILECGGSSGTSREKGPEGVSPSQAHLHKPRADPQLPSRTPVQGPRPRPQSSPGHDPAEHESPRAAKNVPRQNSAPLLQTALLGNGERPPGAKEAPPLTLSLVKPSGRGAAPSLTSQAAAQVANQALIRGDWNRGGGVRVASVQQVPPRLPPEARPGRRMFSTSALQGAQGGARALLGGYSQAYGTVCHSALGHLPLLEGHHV

[4] = target: NEK5 (Homo sapiens, UniProt Q6P3R8)
[5] = target: T3, S6K1 (Homo sapiens, UniProt P23443)
T3 construct: gene RPS6KB1

[6] = target: RIOK2 (Homo sapiens, UniProt Q9BVS4)
[7] = target: T4, NIM1 (Homo sapiens, UniProt Q8IY84)
T4 construct: gene NIM1K
T4 sequence (Q8IY84 whole entry): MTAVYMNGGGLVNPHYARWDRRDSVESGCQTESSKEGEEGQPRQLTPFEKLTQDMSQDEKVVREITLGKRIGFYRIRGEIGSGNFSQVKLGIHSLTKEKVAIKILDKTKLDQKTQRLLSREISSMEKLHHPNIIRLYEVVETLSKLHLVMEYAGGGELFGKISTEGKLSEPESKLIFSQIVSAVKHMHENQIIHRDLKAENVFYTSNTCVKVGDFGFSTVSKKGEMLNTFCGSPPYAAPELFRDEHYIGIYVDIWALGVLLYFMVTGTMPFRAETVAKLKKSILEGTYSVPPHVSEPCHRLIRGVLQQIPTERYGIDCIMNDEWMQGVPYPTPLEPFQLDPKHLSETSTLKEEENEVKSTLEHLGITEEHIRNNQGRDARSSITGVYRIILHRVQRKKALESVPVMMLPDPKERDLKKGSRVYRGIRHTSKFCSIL

[8] = target: AXL (Homo sapiens, UniProt P30530)
[9] = target: PIP5K1C (Homo sapiens, UniProt O60331)
[10] = target: T5, ABL1(Y253F)-phosphorylated (Homo sapiens, UniProt P00519, Y253F)
T5 construct: phosphorylated

[11] = target: CAMK4 (Homo sapiens, UniProt Q16566)
[12] = target: FLT3(ITD,D835V) (Homo sapiens, UniProt P36888, D835V/ITD)
[13] = target: MAP4K3 (Homo sapiens, UniProt Q8IVH8)
[14] = target: T6, CDK4-cyclinD1 (Homo sapiens, UniProt P11802)
T6 construct: cyclinD1

[15] = target: HIPK3 (Homo sapiens, UniProt Q9H422)
[16] = target: CDKL3 (Homo sapiens, UniProt Q8IVW4)
[17] = target: WEE2 (Homo sapiens, UniProt P0C1S8)
[18] = target: T7, MEK5 (Homo sapiens, UniProt Q13163)
T7 construct: gene MAP2K5
T7 sequence (Q13163 whole entry): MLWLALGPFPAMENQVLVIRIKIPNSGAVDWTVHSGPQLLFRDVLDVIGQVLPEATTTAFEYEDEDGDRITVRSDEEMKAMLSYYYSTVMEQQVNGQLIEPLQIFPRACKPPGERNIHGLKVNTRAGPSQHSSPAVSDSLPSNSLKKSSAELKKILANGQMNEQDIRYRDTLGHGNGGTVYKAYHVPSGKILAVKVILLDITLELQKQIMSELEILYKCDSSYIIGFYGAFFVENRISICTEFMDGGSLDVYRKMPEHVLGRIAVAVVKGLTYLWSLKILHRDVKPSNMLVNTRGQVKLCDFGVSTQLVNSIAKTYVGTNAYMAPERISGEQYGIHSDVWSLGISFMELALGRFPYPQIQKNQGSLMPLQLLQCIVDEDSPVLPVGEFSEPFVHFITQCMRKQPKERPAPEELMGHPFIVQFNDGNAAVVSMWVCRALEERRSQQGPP

[19] = target: BLK (Homo sapiens, UniProt P51451)
BLK, sequence (P51451 whole entry): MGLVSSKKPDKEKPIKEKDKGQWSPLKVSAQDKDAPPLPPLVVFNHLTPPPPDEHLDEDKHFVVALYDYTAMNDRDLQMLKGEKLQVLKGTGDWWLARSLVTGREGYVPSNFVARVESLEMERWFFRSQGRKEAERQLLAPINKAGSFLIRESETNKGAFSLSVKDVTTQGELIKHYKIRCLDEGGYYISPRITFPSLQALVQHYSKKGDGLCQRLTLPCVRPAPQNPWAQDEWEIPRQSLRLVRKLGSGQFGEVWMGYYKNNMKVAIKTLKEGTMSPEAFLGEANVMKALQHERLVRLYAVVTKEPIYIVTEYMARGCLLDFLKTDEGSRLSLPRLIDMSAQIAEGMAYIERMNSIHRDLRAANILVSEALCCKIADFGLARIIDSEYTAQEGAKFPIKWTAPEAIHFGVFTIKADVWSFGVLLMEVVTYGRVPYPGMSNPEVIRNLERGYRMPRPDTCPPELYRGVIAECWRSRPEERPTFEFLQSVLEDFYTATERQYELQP

[20] = target: ALK (Homo sapiens, UniProt Q9UM73)
[21] = target: TNNI3K (Homo sapiens, UniProt Q59H18)
TNNI3K, sequence (Q59H18 whole entry): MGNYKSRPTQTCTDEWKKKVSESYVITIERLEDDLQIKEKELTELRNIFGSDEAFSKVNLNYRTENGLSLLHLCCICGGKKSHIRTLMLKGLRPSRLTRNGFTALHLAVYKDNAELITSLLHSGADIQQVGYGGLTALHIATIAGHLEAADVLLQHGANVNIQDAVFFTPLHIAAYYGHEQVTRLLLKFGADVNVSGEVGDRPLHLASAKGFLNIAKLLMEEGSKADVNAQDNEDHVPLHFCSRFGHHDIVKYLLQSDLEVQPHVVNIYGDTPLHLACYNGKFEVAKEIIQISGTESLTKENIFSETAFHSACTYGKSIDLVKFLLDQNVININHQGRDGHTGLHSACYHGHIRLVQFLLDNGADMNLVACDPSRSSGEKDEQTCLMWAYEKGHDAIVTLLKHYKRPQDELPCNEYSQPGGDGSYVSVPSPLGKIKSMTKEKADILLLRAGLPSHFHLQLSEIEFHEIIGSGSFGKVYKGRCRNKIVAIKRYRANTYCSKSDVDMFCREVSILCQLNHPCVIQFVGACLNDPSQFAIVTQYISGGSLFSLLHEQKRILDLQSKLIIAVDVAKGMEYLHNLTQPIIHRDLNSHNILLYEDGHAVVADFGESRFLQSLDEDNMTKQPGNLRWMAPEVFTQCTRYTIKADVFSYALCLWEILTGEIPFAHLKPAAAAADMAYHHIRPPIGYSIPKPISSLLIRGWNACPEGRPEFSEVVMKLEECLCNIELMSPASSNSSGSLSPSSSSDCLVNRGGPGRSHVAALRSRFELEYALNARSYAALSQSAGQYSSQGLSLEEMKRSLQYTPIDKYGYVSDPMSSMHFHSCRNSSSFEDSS

[22] = target: T8, PYK2 (Homo sapiens, UniProt Q14289)
T8 construct: gene PTK2B

[23] = target: T9, FAK (Homo sapiens, UniProt Q05397)
T9 construct: gene PTK2

[24] = target: T10, CAMK1B (Homo sapiens, UniProt Q6P2M8)
T10 construct: gene PNCK
T10 sequence (Q6P2M8 whole entry): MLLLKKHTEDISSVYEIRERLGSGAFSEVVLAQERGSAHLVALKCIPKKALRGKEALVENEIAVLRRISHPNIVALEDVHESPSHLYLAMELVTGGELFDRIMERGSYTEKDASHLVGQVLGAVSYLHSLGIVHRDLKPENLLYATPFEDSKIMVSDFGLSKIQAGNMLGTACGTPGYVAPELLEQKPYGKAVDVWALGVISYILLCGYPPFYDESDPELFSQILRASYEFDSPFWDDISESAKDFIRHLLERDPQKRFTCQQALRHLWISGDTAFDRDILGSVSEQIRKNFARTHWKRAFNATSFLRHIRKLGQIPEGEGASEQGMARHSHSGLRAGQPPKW

[25] = target: T11, YANK2 (Homo sapiens, UniProt Q9NY57)
T11 construct: gene STK32B
T11 sequence (Q9NY57 whole entry): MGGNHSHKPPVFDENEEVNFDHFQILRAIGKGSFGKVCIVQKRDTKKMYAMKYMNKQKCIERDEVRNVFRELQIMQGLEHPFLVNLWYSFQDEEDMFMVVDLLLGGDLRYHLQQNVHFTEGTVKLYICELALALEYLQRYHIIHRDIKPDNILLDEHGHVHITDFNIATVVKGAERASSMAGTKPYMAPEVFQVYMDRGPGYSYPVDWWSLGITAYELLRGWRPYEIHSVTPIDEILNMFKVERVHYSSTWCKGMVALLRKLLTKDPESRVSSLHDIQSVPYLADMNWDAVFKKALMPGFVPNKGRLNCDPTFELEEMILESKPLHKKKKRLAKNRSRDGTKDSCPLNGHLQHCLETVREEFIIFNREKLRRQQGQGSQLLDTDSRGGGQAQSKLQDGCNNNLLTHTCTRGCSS
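Further: KINOMEscan kinase panel binding assay, signal normalized between DMSO as 100% and a positive control compound as 0%.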

NEK1, sequence (Q96PY6 whole entry): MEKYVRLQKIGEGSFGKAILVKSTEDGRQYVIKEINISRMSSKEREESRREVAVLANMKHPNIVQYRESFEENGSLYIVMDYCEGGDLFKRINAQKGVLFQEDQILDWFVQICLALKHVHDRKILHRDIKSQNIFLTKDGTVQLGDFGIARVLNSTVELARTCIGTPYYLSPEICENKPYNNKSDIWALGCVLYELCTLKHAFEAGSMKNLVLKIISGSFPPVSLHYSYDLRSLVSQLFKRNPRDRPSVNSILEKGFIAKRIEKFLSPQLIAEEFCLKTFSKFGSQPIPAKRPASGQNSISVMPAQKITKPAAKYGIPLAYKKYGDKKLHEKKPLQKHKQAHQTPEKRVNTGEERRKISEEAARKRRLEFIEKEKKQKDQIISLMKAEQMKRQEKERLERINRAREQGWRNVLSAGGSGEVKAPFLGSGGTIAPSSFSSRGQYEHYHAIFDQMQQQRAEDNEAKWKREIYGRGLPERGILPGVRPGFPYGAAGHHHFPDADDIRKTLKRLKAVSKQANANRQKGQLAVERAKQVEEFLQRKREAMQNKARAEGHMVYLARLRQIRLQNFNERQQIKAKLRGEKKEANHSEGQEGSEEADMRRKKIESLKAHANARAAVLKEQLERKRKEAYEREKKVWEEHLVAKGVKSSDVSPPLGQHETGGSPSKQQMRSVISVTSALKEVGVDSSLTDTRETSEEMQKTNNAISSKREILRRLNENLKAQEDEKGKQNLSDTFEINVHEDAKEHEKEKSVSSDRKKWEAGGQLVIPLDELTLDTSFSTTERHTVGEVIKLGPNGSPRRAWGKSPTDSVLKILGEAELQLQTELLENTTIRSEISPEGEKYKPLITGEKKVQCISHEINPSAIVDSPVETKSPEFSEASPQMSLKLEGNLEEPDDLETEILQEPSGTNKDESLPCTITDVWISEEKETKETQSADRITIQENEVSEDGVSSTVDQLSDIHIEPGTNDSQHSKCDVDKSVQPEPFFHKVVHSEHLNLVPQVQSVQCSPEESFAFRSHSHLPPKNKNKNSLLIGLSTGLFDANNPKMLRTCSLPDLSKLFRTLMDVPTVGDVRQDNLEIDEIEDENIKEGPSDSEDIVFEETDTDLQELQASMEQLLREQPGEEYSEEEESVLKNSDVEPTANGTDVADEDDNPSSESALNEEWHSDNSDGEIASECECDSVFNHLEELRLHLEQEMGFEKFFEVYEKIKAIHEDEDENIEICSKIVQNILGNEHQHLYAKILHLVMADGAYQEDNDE

Compound `Cc1cnc2nc1Nc1cccc(c1)COCc1cc(ccc1OCCN1CCCC1)N2` [Compound 1] has a remaining binding at 0.1 µM [1] of 100%, a remaining binding at 0.1 µM [2] of 93% and a remaining binding at 0.1 µM [3] of 99%. For the same compound, the remaining binding at 0.1 µM [4] was 93%, the remaining binding at 0.1 µM [5] was 98% and the remaining binding at 0.1 µM [6] was 84%. For the same compound, the remaining binding at 0.1 µM [7] was 99%, the remaining binding at 0.1 µM [8] was 90% and the remaining binding at 0.1 µM [9] was 66%. For the same compound, the remaining binding at 0.1 µM [10] was 64%, the remaining binding at 0.1 µM [11] was 100% and the remaining binding at 0.1 µM [12] was 2.1%. The remaining binding at 0.1 µM [13] was 83%, the remaining binding at 0.1 µM [14] was 76% and the remaining binding at 0.1 µM [15] was 87%. The remaining binding at 0.1 µM [16] was 77%, the remaining binding at 0.1 µM [17] was 78% and the remaining binding at 0.1 µM [18] was 22%. The remaining binding at 0.1 µM [19] was 76%, the remaining binding at 0.1 µM [20] was 79% and the remaining binding at 0.1 µM [21] was 100%. For the same compound, the remaining binding at 0.1 µM [22] was 82%, the remaining binding at 0.1 µM [23] was 95% and the remaining binding at 0.1 µM [24] was 92%. The remaining binding at 0.1 µM [25] was 95%.
